Measurements from patent US20170014467A1, “COMPOSITION AND THE USE THEREOF” (INFINITUS (CHINA) COMPANY LTD., priority 2015, published 2017).

Columns and labels:
[1] = system: hyperuricemia model of rats; assay: Potassium oxonate hyperuricemia model of rats: serum uric acid, urea nitrogen and creatinine after 15 d intragastric administration (Example 22); assay type: in vivo; details: allopurinol 27 mg/kg + potassium oxonate 1.5 g/kg
Experimental: 105 SPF grade SD rats, all of which are male and have a body weight of 200±20 (g), provided by Beijing Vital River Laboratory Animal Technology Co., Ltd. (license number: SOCK (Beijing) 2012-0001) were taken. Potassium oxonate, Jinan Chenghuishuangda Chemical Co., Ltd. product with the batch number of 12042001, was prepared with 0.1% CMC-Na into a suspension of a concentration of 0.15 g/ml in an amount for 3 d each time and the stock was stored at 4° C. Allopurinol, Tokyo chemical industry Co. Ltd. product with the batch number of MYRYA-IR, was prepared with 0.1% CMC-Na into a suspension of a concentration of 2.7 g/ml in an amount for 3 d each time and the stock was stored at 4° C. . Uric acid and urea nitrogen test kit were provided by Centronic GmbH company in German, with the batch numbers of UF03121HH6G and UF01121GG66G respectively, and creatinine test kit was provided by Shanghai Lanyi Technology Co. Ltd. with the batch number of R102APA. […]
The body weights of the rats were monitored, the blood samples were collected to measure the uric acid, creatinine and urea nitrogen before the experiments and at the 15th day of the administration, and the variance ratio of the serum uric acid levels was measured and calculated. […]

[2] = Animal body weights in the hyperuricemia rat experiment (Example 22); assay type: in vivo, SD rats; details: allopurinol 27 mg/kg + potassium oxonate 1.5 g/kg, intragastric, mean ± SD
Experimental: (§1) 105 SPF grade SD rats, all of which are male and have a body weight of 200±20 (g), provided by Beijing Vital River Laboratory Animal Technology Co., Ltd. (license number: SOCK (Beijing) 2012-0001) were taken. Potassium oxonate, Jinan Chenghuishuangda Chemical Co., Ltd. product with the batch number of 12042001, was prepared with 0.1% CMC-Na into a suspension of a concentration of 0.15 g/ml in an amount for 3 d each time and the stock was stored at 4° C. Allopurinol, Tokyo chemical industry Co. Ltd. product with the batch number of MYRYA-IR, was prepared with 0.1% CMC-Na into a suspension of a concentration of […] in an amount for 3 d each time and the stock was stored at 4° C. . Uric acid and urea nitrogen test kit were provided by Centronic GmbH company in German, with the batch numbers of UF03121HH6G and UF01121GG66G respectively, and creatinine test kit was provided by Shanghai Lanyi Technology Co. Ltd. with the batch number of R102APA.
SD rats were adapted for 5 days in the experimental environment, and randomly divided by body weight into normal control group, model group, allopurinol group, Sample 1 (the composition of Chinese herbal medicines and tuna extract prepared in Example 18) high-dose group and low-dose group and Sample 2 (the composition of Chinese herbal medicines prepared in Example 18 excluding tuna extract) high-dose group and low-dose group. According to the clinical dose, the intragastric doses of Samples 1 and 2 were 5 times larger (0.2 ml/100 g) and 30 times larger (1.25 ml/100 g) than the recommended amount for human body for the low-dose groups and high-dose groups, respectively.
(§2) The same volume of drinking water was intragastrically administered to the normal control group every day, and the potassium oxonate was intragastrically administered to each of the rest groups of rats every morning at 1.5 g·kg^−1·d^−1; the same volume of physiological saline was intragastrically administered to the model group in the afternoon; the allopurinol was intragastrically administered to the allopurinol group at 27 mg·kg^−1·d^−1 in the afternoon; the samples to be tested of different doses diluted to the same volume were intragastrically administered to the Sample 1 of high-dose and low-dose groups and the Sample 2 of high-dose and low-dose groups in the afternoon.
(§3) The body weights of the rats were monitored, the blood samples were collected to measure the uric acid, creatinine and urea nitrogen before the experiments and at the 15th day of the administration, and the variance ratio of the serum uric acid levels was measured and calculated.

[3] = system: hyperuricemia model of rats; assay: Comparative test in potassium oxonate hyperuricemia rats: serum uric acid, urea nitrogen and creatinine (Example 23); assay type: in vivo; details: 15 d intragastric, allopurinol 27 mg/kg + potassium oxonate 1.5 g/kg, mean ± SD
From the text: (license number: SOCK (Beijing) 2012-0001) were taken. […] Allopurinol, Tokyo chemical industry Co. […] Uric acid and urea nitrogen test kit were provided by Centronic GmbH company in German, with the batch numbers of UF03121HH6G and UF01121G[…] respectively, and creatinine test kit was provided by Shanghai Lanyi Technology Co. Ltd. with the batch number of […]. […] Modeling principle: the rats were intragastrically administered with the chemical uricase inhibitor, potassium oxonate to inhibit the uricase activity in the rats, which make the uric acid in their body unable to be decomposed and resulting in an increase of serum uric acid to replicate the hyperuricemia model of rats. The body weights of the rats were monitored, the blood samples were collected to measure the uric acid, creatinine and urea nitrogen before the experiments and at the 15th day of the administration, and the variance ratio of the serum uric acid levels was measured and calculated. Comparative Test […] Coicis semen 18, Cichorii Herba 8, […] Herba 8 and Pueraia Lobata Radix 8. The health food having the function of lowering uric acid provided in Comparative Example 2 of the present invention is prepared from the following components in parts by weight: Coicis semen 18, Motherwort 10, Cichorii Herba 8, […] Herba 8, Pueraia Lobata Radix 8 and tuna extract 0.1. […] Coicis semen 18, […] semen 9, Cichorii Herba 8, […] […]

[4] = Animal body weights in the comparative test (Example 23); assay type: in vivo, SD rats; details: allopurinol 27 mg/kg + potassium oxonate 1.5 g/kg, mean ± SD
Experimental: as §1, §2, §3
Experimental group: Sample 1—the composition prepared in Example 1.

Q: For `Oc1ncnc2[nH]ncc12` [Allopurinol], which Creatinine ([1]; model group 31.0 ± 3.3, mean ± SD) is on record?
A: The Creatinine was 27.9 ± 2.2 µmol/L.

Q: And the “Uric Acid” value ([1]; model group 256.4 ± 41.3, mean ± SD)?
A: Its value is 31.8 ± 10.3 µmol/L.

Q: What about the “animal body weights, Before Experiments” value ([2]; baseline, N=15) of the same compound?
A: Its value is 290 ± 13 g.

Q: What about the “animal body weights, 1 week after treatment” value [2] of the same compound?
A: The value was 322 ± 20 g.

Q: What about the “animal body weights, 2 weeks after treatment” value [2] of the same compound?
A: The value was 352 ± 24 g.

Q: What about the “animal body weights, 3 weeks after treatment” value [2] of the same compound?
A: The value was 366 ± 28 g.

Q: What about the “animal body weights, 4 weeks after treatment” value [2] of the same compound?
A: Its value is 387 ± 29 g.

Q: What about the Creatinine ([3]; model group 31.0 ± 3.3) of the same compound?
A: The Creatinine was 27.9 ± 2.2 µmol/L.

Q: What about the “Uric Acid” value ([3]; model group 256.4 ± 41.3) of the same compound?
A: The value was 31.8 ± 10.3 µmol/L.

Q: What about the “animal body weights, Before Experiments” value ([4]; baseline, N=15) of the same compound?
A: Its value is 290 ± 13 g.

Q: What about the “animal body weights, 1 week after treatment” value [4] of the same compound?
A: Its value is 322 ± 20 g.

Q: What about the “animal body weights, 2 weeks after treatment” value [4] of the same compound?
A: The value was 352 ± 24 g.

Q: And the “animal body weights, 3 weeks after treatment” value [4]?
A: Its value is 366 ± 28 g.

Q: What about the “animal body weights, 4 weeks after treatment” value [4] of the same compound?
A: Its value is 387 ± 29 g.
